Test results as given in patent US9487516B2, “Antibacterial oxadiazolone derivatives” (priority 2013, dated 2016).
Converted amounts (≈) assume the structure as drawn.

Assays:
Experiment in all cases: Bacterial growth minimal inhibitory concentration (microdilution, cation-adjusted Mueller-Hinton Broth)
Assay type in all cases: cell-based
[1] = test system: Staphylococcus aureus ATCC29213; conditions: methicillin-sensitive and quinolone-sensitive strain, read-out: MIC for S. aureus ATCC29213
Description: (§1) Minimal Inhibitory Concentrations (MICs; mg/L) were determined in cation-adjusted MuellerHinton Broth by a microdilution method following the description given in “Methods for Dilution Antimicrobial Susceptibility Tests for Bacteria that Grow Aerobically”, Approved standard, 7th ed., Clinical and Laboratory Standards Institute (CLSI) Document M7-A7, Wayne, Pa., USA, 2006.
(§2) All Example compounds were tested against several Gram positive and Gram negative bacteria. […] Staphylococcus aureus A798, Enterococcus faecium A949 and Acinetobacter baumanii T6474 are multiply-resistant strains (in particular quinolone-resistant), while Moraxella catarrhalis A894 is a quinolone-sensitive strain and Staphylococcus aureus ATCC29213 is a methicillin-sensitive and quinolone-sensitive strain.

[2] = test system: Staphylococcus aureus A798; conditions: multiply-resistant strain (in particular quinolone-resistant), read-out: MIC for S. aureus A798
Description: as §1, §2

[3] = test system: Moraxella catarrhalis A894; conditions: quinolone-sensitive strain
Description: as §1, §2

[4] = test system: Acinetobacter baumanii T6474; conditions: Acinetobacter baumannii, multiply-resistant strain (in particular quinolone-resistant)
Description: as §1, §2

[5] = test system: Enterococcus faecium A949; conditions: multiply-resistant strain (in particular quinolone-resistant), read-out: MIC for E. faecium A949
Description: as §1, §2

Row | Structure (SMILES) | MIC [1] | MIC [2] | MIC [3] | MIC [4] | MIC [5]
1 | CCCc1ccc(-n2nc(CCCN[C@@H]3Cn4c(=O)ccc5ccc(F)c3c54)oc2=O)cc1 [Example 1, (S)-9-fluoro-1-{3-[5-oxo-4-(4-propyl-phenyl)-4,5-dihydro-[1,3,4]oxadiazol-2-yl]-propylamino}-1,2-dihydro-pyrrolo[3,2,1-ij]quinolin-4-one] | 0.25 µg/mL (≈ 0.557 µM) | 2 µg/mL (≈ 4.46 µM) | 2 µg/mL (≈ 4.46 µM) | > 8 µg/mL | 1 µg/mL (≈ 2.23 µM)
2 | CCCc1ccc(-n2nc(CCCN[C@H]3Cn4c(=O)cnc5ccc(F)c3c54)oc2=O)cc1 [Example 2, (R)-7-fluoro-6-{3-[5-oxo-4-(4-propyl-phenyl)-4,5-dihydro-[1,3,4]oxadiazol-2-yl]-propylamino}-5,6-dihydro-pyrrolo[1,2,3-de]quinoxalin-3-one] | 0.125 µg/mL (≈ 0.278 µM) | 0.5 µg/mL (≈ 1.11 µM) | 2 µg/mL (≈ 4.45 µM) | > 8 µg/mL | 1 µg/mL (≈ 2.22 µM)
3 | CC(C)c1ccc(-n2nc(CCCN[C@@H]3Cn4c(=O)ccc5ccc(F)c3c54)oc2=O)cc1 [Example 3, (S)-9-fluoro-1-{3-[4-(4-isopropyl-phenyl)-5-oxo-4,5-dihydro-[1,3,4]oxadiazol-2-yl]-propylamino}-1,2-dihydro-pyrrolo[3,2,1-ij]quinolin-4-one] | 0.063 µg/mL (≈ 0.14 µM) | 0.25 µg/mL (≈ 0.557 µM) | 2 µg/mL (≈ 4.46 µM) | > 8 µg/mL | 0.25 µg/mL (≈ 0.557 µM)
4 | CCSc1ccc(-n2nc(CCCN[C@@H]3Cn4c(=O)ccc5ccc(F)c3c54)oc2=O)cc1 [Example 4, (S)-1-{3-[4-(4-ethylsulfanyl-phenyl)-5-oxo-4,5-dihydro-[1,3,4]oxadiazol-2-yl]-propylamino}-9-fluoro-1,2-dihydro-pyrrolo[3,2,1-ij]quinolin-4-one] | 0.063 µg/mL (≈ 0.135 µM) | 0.5 µg/mL (≈ 1.07 µM) | 0.5 µg/mL (≈ 1.07 µM) | 8 µg/mL (≈ 17.1 µM) | 0.5 µg/mL (≈ 1.07 µM)
5 | CCSc1ccc(-n2nc(CCCN[C@H]3Cn4c(=O)cnc5ccc(F)c3c54)oc2=O)cc1 [Example 5, (R)-6-{3-[4-(4-ethylsulfanyl-phenyl)-5-oxo-4,5-dihydro-[1,3,4]oxadiazol-2-yl]-propylamino}-7-fluoro-5,6-dihydro-pyrrolo[1,2,3-de]quinoxalin-3-one] | 0.031 µg/mL (≈ 0.0663 µM) | 0.063 µg/mL (≈ 0.135 µM) | 0.25 µg/mL (≈ 0.535 µM) | 4 µg/mL (≈ 8.56 µM) | 0.5 µg/mL (≈ 1.07 µM)
6 | O=C1COc2ccc(-n3nc(CCCN[C@H]4Cn5c(=O)cnc6ccc(F)c4c65)oc3=O)nc2N1 [Example 6, (R)-7-fluoro-6-{3-[5-oxo-4-(3-oxo-3,4-dihydro-2H-pyrido[3,2-b][1,4]oxazin-6-yl)-4,5-dihydro-[1,3,4]oxadiazol-2-yl]-propylamino}-5,6-dihydro-pyrrolo[1,2,3-de]quinoxalin-3-one] | 0.5 µg/mL (≈ 1.04 µM) | 0.5 µg/mL (≈ 1.04 µM) | 0.5 µg/mL (≈ 1.04 µM) | 2 µg/mL (≈ 4.17 µM) | 2 µg/mL (≈ 4.17 µM)
7 | O=C1COc2ccc(-n3nc(CCCN[C@@H]4Cn5c(=O)cnc6ccc(F)c4c65)oc3=O)nc2N1 [Example 7, (S)-7-fluoro-6-{3-[5-oxo-4-(3-oxo-3,4-dihydro-2H-pyrido[3,2-b][1,4]oxazin-6-yl)-4,5-dihydro-[1,3,4]oxadiazol-2-yl]-propylamino}-5,6-dihydro-pyrrolo[1,2,3-de]quinoxalin-3-one] | 0.25 µg/mL (≈ 0.521 µM) | 0.5 µg/mL (≈ 1.04 µM) | 0.25 µg/mL (≈ 0.521 µM) | 2 µg/mL (≈ 4.17 µM) | 2 µg/mL (≈ 4.17 µM)
8 | O=C1COc2ccc(-n3nc(CCCN[C@@H]4Cn5c(=O)ccc6ccc(F)c4c65)oc3=O)nc2N1 [Example 8, (S)-9-fluoro-1-{3-[5-oxo-4-(3-oxo-3,4-dihydro-2H-pyrido[3,2-b][1,4]oxazin-6-yl)-4,5-dihydro-[1,3,4]oxadiazol-2-yl]-propylamino}-1,2-dihydro-pyrrolo[3,2,1-ij]quinolin-4-one] | 0.125 µg/mL (≈ 0.261 µM) | 0.25 µg/mL (≈ 0.523 µM) | 0.125 µg/mL (≈ 0.261 µM) | 0.5 µg/mL (≈ 1.05 µM) | 0.5 µg/mL (≈ 1.05 µM)
9 | O=C1COc2ccc(-n3nc(CCCN[C@H]4Cn5c(=O)ccc6ccc(F)c4c65)oc3=O)nc2N1 [Example 9, (R)-9-fluoro-1-{3-[5-oxo-4-(3-oxo-3,4-dihydro-2H-pyrido[3,2-b][1,4]oxazin-6-yl)-4,5-dihydro-[1,3,4]oxadiazol-2-yl]-propylamino}-1,2-dihydro-pyrrolo[3,2,1-ij]quinolin-4-one] | 0.125 µg/mL (≈ 0.261 µM) | 0.25 µg/mL (≈ 0.523 µM) | 0.125 µg/mL (≈ 0.261 µM) | 1 µg/mL (≈ 2.09 µM) | 0.5 µg/mL (≈ 1.05 µM)
10 | O=C1COc2ccc(-n3nc(CCCN[C@@H]4Cn5c(=O)cnc6ccc(F)c4c65)oc3=O)cc2N1 [Example 10, (S)-7-fluoro-6-{3-[5-oxo-4-(3-oxo-3,4-dihydro-2H-benzo[1,4]oxazin-6-yl)-4,5-dihydro-[1,3,4]oxadiazol-2-yl]-propylamino}-5,6-dihydro-pyrrolo[1,2,3-de]quinoxalin-3-one] | 0.031 µg/mL (≈ 0.0648 µM) | 0.063 µg/mL (≈ 0.132 µM) | ≤ 0.016 µg/mL | 0.25 µg/mL (≈ 0.523 µM) | 0.5 µg/mL (≈ 1.05 µM)
11 | O=C1COc2ccc(-n3nc(CCCN[C@@H]4Cn5c(=O)ccc6ccc(F)c4c65)oc3=O)cc2N1 [Example 11, (S)-9-fluoro-1-{3-[5-oxo-4-(3-oxo-3,4-dihydro-2H-benzo[1,4]oxazin-6-yl)-4,5-dihydro-[1,3,4]oxadiazol-2-yl]-propylamino}-1,2-dihydro-pyrrolo[3,2,1-ij]quinolin-4-one] | 0.031 µg/mL (≈ 0.0649 µM) | 0.063 µg/mL (≈ 0.132 µM) | ≤ 0.016 µg/mL | 0.25 µg/mL (≈ 0.524 µM) | 0.25 µg/mL (≈ 0.524 µM)
12 | O=C1COc2ccc(-n3nc(CCCN[C@H]4Cn5c(=O)ccc6ccc(F)c4c65)oc3=O)cc2N1 [Example 12, (R)-9-fluoro-1-{3-[5-oxo-4-(3-oxo-3,4-dihydro-2H-benzo[1,4]oxazin-6-yl)-4,5-dihydro-[1,3,4]oxadiazol-2-yl]-propylamino}-1,2-dihydro-pyrrolo[3,2,1-ij]quinolin-4-one] | 0.031 µg/mL (≈ 0.0649 µM) | 0.031 µg/mL (≈ 0.0649 µM) | ≤ 0.016 µg/mL | 0.25 µg/mL (≈ 0.524 µM) | 0.25 µg/mL (≈ 0.524 µM)
13 | O=C1COc2ccc(-n3nc(CCCN[C@H]4Cn5c(=O)cnc6ccc(F)c4c65)oc3=O)cc2N1 [Example 13, (R)-7-fluoro-6-{3-[5-oxo-4-(3-oxo-3,4-dihydro-2H-benzo[1,4]oxazin-6-yl)-4,5-dihydro-[1,3,4]oxadiazol-2-yl]-propylamino}-5,6-dihydro-pyrrolo[1,2,3-de]quinoxalin-3-one] | 0.031 µg/mL (≈ 0.0648 µM) | 0.031 µg/mL (≈ 0.0648 µM) | ≤ 0.016 µg/mL | 0.25 µg/mL (≈ 0.523 µM) | 0.25 µg/mL (≈ 0.523 µM)
14 | O=C1CSc2ccc(-n3nc(CCCN[C@H]4Cn5c(=O)ccc6ccc(F)c4c65)oc3=O)nc2N1 [Example 14, (R)-9-fluoro-1-{3-[5-oxo-4-(3-oxo-3,4-dihydro-2H-pyrido[3,2-b][1,4]-thiazin-6-yl)-4,5-dihydro-[1,3,4]oxadiazol-2-yl]-propylamino}-1,2-dihydro-pyrrolo[3,2,1-ij]quinolin-4-one] | ≤ 0.016 µg/mL | 0.031 µg/mL (≈ 0.0627 µM) | 0.031 µg/mL (≈ 0.0627 µM) | 0.25 µg/mL (≈ 0.506 µM) | 0.25 µg/mL (≈ 0.506 µM)
15 | O=C1CSc2ccc(-n3nc(CCCN[C@@H]4Cn5c(=O)ccc6ccc(F)c4c65)oc3=O)cc2N1 [Example 15, (S)-9-fluoro-1-{3-[5-oxo-4-(3-oxo-3,4-dihydro-2H-benzo[1,4]-thiazin-6-yl)-4,5-dihydro-[1,3,4]oxadiazol-2-yl]-propylamino}-1,2-dihydro-pyrrolo[3,2,1-ij]quinolin-4-one] | ≤ 0.016 µg/mL | ≤ 0.016 µg/mL | ≤ 0.016 µg/mL | 0.125 µg/mL (≈ 0.253 µM) | 0.063 µg/mL (≈ 0.128 µM)
